Data taken from patent US11013745B2, “Triazolopyrimidine, triazolopyridine compounds, and the composition thereof for treating PRC2-mediated diseases” (SHANGHAI INSTITUTE OF MATERIA MEDICA, CHINESE ACADEMY OF …, priority 2017, dated 2021).

Tests used:
SU-DHL-4 cells = experiment: Growth inhibition of SU-DHL-4 cells in a long term (11 days), CellTiter-Glo; type: cell-based, Human; conditions: Homo sapiens, 264 h; SU-DHL-4, 11 days; read-out: SU-DHL-4 (11 days) IC50
PRC2 enzyme = PRC2 enzyme (Homo sapiens (Human), UniProt O75530); experiment: PRC2 enzyme activity, TR-FRET method; type: biochemical
PRC2 enzyme, sequence (O75530 whole entry): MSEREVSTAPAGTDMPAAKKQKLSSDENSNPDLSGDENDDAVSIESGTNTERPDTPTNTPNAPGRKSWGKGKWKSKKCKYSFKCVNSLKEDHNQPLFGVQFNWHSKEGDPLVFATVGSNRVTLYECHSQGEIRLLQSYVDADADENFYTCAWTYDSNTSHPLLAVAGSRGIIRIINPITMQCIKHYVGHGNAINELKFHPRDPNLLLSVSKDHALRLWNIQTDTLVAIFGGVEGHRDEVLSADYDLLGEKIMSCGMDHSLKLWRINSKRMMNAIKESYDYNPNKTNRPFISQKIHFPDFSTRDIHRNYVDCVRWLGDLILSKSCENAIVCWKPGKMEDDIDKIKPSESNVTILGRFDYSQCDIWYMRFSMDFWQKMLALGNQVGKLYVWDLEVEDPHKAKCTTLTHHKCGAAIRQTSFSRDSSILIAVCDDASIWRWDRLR
PRC2 enzyme, sequence (Q15910 whole entry partner): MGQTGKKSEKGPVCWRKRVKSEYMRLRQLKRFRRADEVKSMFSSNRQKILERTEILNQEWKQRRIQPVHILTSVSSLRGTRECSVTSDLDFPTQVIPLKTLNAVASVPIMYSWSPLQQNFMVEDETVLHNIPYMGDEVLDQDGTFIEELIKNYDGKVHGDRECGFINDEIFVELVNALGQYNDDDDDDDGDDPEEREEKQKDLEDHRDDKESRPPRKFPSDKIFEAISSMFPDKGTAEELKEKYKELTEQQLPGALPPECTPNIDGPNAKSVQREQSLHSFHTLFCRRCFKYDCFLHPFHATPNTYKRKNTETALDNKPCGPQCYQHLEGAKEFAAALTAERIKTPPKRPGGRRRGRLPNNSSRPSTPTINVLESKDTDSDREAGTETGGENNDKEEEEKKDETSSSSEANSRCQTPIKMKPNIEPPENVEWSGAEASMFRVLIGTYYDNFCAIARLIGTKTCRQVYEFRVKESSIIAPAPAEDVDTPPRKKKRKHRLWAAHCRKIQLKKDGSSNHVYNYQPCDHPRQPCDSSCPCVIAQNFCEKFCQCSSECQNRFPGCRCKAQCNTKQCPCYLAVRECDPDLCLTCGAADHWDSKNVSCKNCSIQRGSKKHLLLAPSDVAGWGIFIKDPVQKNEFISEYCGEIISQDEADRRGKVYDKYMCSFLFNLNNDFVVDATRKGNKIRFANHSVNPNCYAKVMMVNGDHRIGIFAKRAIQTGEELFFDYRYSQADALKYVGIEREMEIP
PRC2 enzyme, sequence (Q15022 whole entry partner): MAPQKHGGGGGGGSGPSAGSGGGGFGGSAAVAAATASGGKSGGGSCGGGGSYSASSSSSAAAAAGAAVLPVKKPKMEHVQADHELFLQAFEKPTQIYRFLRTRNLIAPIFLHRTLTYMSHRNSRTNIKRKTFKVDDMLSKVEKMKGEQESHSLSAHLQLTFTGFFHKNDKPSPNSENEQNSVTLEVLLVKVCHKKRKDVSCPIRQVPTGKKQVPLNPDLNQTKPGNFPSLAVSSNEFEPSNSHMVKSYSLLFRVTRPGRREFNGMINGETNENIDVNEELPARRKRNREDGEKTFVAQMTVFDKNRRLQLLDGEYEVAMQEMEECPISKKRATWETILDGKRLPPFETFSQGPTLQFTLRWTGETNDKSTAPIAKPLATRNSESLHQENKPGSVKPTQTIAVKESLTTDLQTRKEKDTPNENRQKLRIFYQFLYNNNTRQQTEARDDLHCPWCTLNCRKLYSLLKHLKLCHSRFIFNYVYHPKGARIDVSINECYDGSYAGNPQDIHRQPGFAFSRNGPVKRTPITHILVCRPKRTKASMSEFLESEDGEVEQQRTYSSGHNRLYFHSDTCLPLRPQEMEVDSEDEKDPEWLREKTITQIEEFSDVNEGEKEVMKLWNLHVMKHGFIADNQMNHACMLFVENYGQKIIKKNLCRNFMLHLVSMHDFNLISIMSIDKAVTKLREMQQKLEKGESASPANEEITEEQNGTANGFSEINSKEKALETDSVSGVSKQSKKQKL
Method: The TR-FRET method was used to measure the PRC2 enzyme activity. First, the enzyme was mixed with compounds at different concentrations and incubated for 30 min at room temperature. The biotin-labeled histone H3 peptide substrate and the cofactor S-adenosylmethionine (SAM) were added to initiate the enzymatic reaction. After reaction was performed at room temperature for 4 hour, Acceptor and Donor were added and incubated for half an hour. The multifunctional microplate reader EnVision (Perkin Elmer Inc.) was used to detect the fluorescence signal. Data were analyzed using GraphPad Prism 5.0 software, and IC50 values were obtained.

Pfeiffer cells [1] = experiment: Pfeiffer cell growth inhibition in a long term (11 days), CellTiter-Glo; type: cell-based, Human; conditions: Homo sapiens, 264 h, 11 days, read-out: Experiment on Pfeiffer cell growth inhibition in a long term (11 days IC50)
Method: Pfeiffer cells in exponential growth phase were seeded in a 24-well plate with a cell density of 1*10E5 cells/mL. Cells were treated on the same day with the compounds at different concentrations. At day 4 and day 7 of compound treatment, fresh media and compounds were changed. After treated with the compounds for 11 days, cell viability was measured using CellTiter-Glo reagent (Promega Corporation). The data was analyzed using GraphPad Prism 5.0 software and GI50 values were obtained.

Pfeiffer cells [2] = experiment: Growth inhibition of Pfeiffer cells in a long term (14 days), CellTiter-Glo; type: cell-based, Human; conditions: Homo sapiens, 336 h, 14 days, read-out: Pfeiffer (14 days) IC50
Method: In a CO2 cell incubator (37° C., 5% CO2), Human diffuse large B-cell lymphoma (DLBCL) cell line, pfeiffer (obtained from ATCC, CRL-2632) were incubated with RPMI 1640 medium (Gibco, purchased from Life Technologies, 22400-089) containing 10% fetal bovine serum (Gibco, purchased from Life Technologies, 10099-141) and 1% antibiotics (penicillin and streptomycin, purchased from Life Technologies, 10378016). […] After seeding the cells, they were placed in a CO2 incubator and allowed to stand for 1 hour. In a 24-well plate containing cells, 2 μL of three-fold gradient of the compounds at 9 different concentrations or DMSO were added to each well, such that the final concentration of the compounds was 0.003-20 μM or 0.3-2000 nM, and the final concentration of DMSO was 0.2%. At day 4, day 7, and day 11 of compound treatment, the fresh medium and compounds were changed, and the cell density of the DMSO control well was diluted to 2*10E5 cells/mL. The cell dilution ratio for other compound wells was the same as that of the DMSO control well. Cell viability was determined by using CellTiter-Glo reagent (purchased from Promega Inc., G7572): cells treated with the compounds for 14 days were transferred to a white 384-well plate (OptiPlate-384, purchased from PerkinElmer, 6007299) at 40 μL/well, an equal volume of CellTiter-Glo reagent was further added. After incubating at room temperature for 10 min, the cold luminescence signal was detected with a multifunctional microplate reader EnVision (PerkinElmer) at a wavelength of 400 to 700 nm. Data were analyzed using GraphPad Prism 5.0 software, and IC50 values were obtained.

Karpas-422 cells = experiment: Growth inhibition of Karpas-422 cells in a long term (11 days), CellTiter-Glo; type: cell-based, Human; conditions: Homo sapiens, 264 h; Karpas-422, 11 days; read-out: Karpas-422 (11 days) IC50
[3] = Liver microsomal stability (human); type: in vitro ADME
Method: (§1) 1. JANUS and temperature control device was turned on. After being initialized, the pipes were flushed until there was no air bubble in the pipes.
(§2) 2. Preparation of buffers used for the experiment
(§3) Preparation of Tris pH 7.4 buffer (0.1 M): 12.12 g of Tris was dissolved in 1000 mL of H2O, the resulting solution was adjusted to pH 7.4 with 2N HCl, aliquoted at 50 mL per tube, and stored at −20° C.
(§4) Preparation of H2O/0.1% BSA buffer: 200 μL of 25% BSA was added to 50 mL of H2O.
(§5) Preparation of VIVID stock solution: 1 mg of VIVID was dissolved in 1 mL of acetonitrile, aliquoted at 50 μL per tube, and stored at −20° C.
(§6) Preparation of MgCl2 solution (100 mM): 1.016 g of MgCl2 was dissolved in 50 mL Tris pH 7.4 buffer, and aliquoted at 1 mL per tube, and stored at −20° C.
(§7) Preparation of NADPH solution (10 mM): 355 mg of NADPH was dissolved in 42.6 mL of Tris pH 7.4 buffer, aliquoted at 1.8 mL per tube, and stored at −20° C.
(§8) Preparation of Blank control: 7.937 mL of Tris, 163 μL of RLM, 450 μL of MgCl2 solution, 450 μL of NADPH solution and 9 mL of methanol were mixed uniformly, aliquoted at 1 mL per tube, and stored at −20° C.
(§9) 3. Preparation of Compound Working Solution
(§10) Dilution step 1:10 μL of compound stock solution was added to 90 μL of DMSO=1 mM stock solution.
(§11) Dilution step 2: 2 μL of 1 mM stock solution was added to 1 mL of H2O/0.1%6 BSA buffer=[…] working solution.
(§12) Dilution step 3: 245 μL of the working solution was added to a 96-well compound plate and added with 5 μL of VIVID stock solution.
(§13) The 96-well compound plate was shaken on a shaker for 5 min.
(§14) 4. The STM in the JANUS in the computer was open to run the EXCEL file, and the JANUS program was operated and run by following the instructions in the EXCEL file.
(§15) 5. After the JANUS program was finished, acetonitrile/water 50:50 (V/V) was added to column 20 of the 384-well black plate, and blank control was added to column 21 of the 384-well black plate.
(§16) 6. the plate (420 nm-465 nm) was read on a microplate reader to determine the VIVID fluorescence intensity.
(§17) 7. After the plate was sealed, shaken and centrifuged, the sample plate was subjected to the LC/MS instrument for sample analysis.
(§18) A profile of the logarithmic value of the remaining rate of the drug in the incubation system versus the incubation time was plotted, and the slope k was obtained by linear regression. The intrinsic clearance rate in vivo (Clint, mL/min/g) value, the clearance rate in vivo (Cl, mL)/min), liver clearance (Clhep, mL/min) and metabolic bioavailability (% MF) were predicted according to the following equations: […]

[4] = Liver microsomal stability (rat); type: in vitro ADME
Method: as §1, §2, §3, §4, §5, §6, §7, §8, §9, §10, §11, §12, §13, §14, §15, §16, §17, §18

[5] = Liver microsomal stability (mouse); type: in vitro ADME

Row | Compound | IC50 (SU-DHL-4 cells) | IC50 (PRC2 enzyme) | IC50 (Pfeiffer cells [1]) | IC50 (Pfeiffer cells [2]) | IC50 (Karpas-422 cells) | Clearance rate in vivo Clint In Vivo Extpl ([3]; human liver microsomes) | Intrinsic clearance rate in vivo Clint In Vitro ([3]; human liver microsomes) | Liver clearance rate Clint Hep In Vivo Extpl ([3]; human liver microsomes) | half-life ([3]; human, liver microsomes, pH 7.4, human liver microsomes, read-out: Half life T-half) | bioavailability ([3]; human, liver microsomes, pH 7.4, human liver microsomes, read-out: Metabolic bioavailability MF %) | Clearance rate in vivo Clint In Vivo Extpl ([4]; rat liver microsomes) | Intrinsic clearance rate in vivo Clint In Vitro ([4]; rat liver microsomes) | Liver clearance rate Clint Hep In Vivo Extpl ([4]; rat liver microsomes) | Metabolic bioavailability MF % ([4]; rat liver microsomes) | half-life ([4]; rat, liver microsomes, pH 7.4, rat liver microsomes, read-out: Half life T-half) | Clearance rate in vivo Clint In Vivo Extpl ([5]; mouse liver microsomes) | Intrinsic clearance rate in vivo Clint In Vitro ([5]; mouse liver microsomes) | Liver clearance rate Clint Hep In Vivo Extpl ([5]; mouse liver microsomes) | Metabolic bioavailability MF % ([5]; mouse liver microsomes) | half-life ([5]; mouse, liver microsomes, pH 7.4, mouse liver microsomes, read-out: Half life T-half)
1 | O=S(=O)(C1CC1)N1CC=C(c2cnc(NCc3c(F)ccc4c3CCO4)n3cnnc23)CC1 [SL-ZYE-146] | 4 nM | 2.9 nM | 4.5 nM | 3 nM | 4 nM | – | – | – | – | – | – | – | – | – | – | – | – | – | – | –
2 | CC1CC(c2cnc(NCc3c(F)ccc4c3CCO4)n3cnnc23)=CCO1 (stereo not shown) [SL-ZYE-196] | 9 to 50 nM | 14.1 nM | 7 nM | 4 nM | 19.9 nM | – | – | – | – | – | – | – | – | – | – | – | – | – | – | –

The next compounds have a lower IC50 (SU-DHL-4 cells) than those just listed; values first:

Row | IC50 (SU-DHL-4 cells) | IC50 (PRC2 enzyme) | IC50 (Pfeiffer cells [1]) | IC50 (Pfeiffer cells [2]) | IC50 (Karpas-422 cells) | Clearance rate in vivo Clint In Vivo Extpl ([3]; human liver microsomes) | Intrinsic clearance rate in vivo Clint In Vitro ([3]; human liver microsomes) | Liver clearance rate Clint Hep In Vivo Extpl ([3]; human liver microsomes) | half-life ([3]; human, liver microsomes, pH 7.4, human liver microsomes, read-out: Half life T-half) | bioavailability ([3]; human, liver microsomes, pH 7.4, human liver microsomes, read-out: Metabolic bioavailability MF %) | Clearance rate in vivo Clint In Vivo Extpl ([4]; rat liver microsomes) | Intrinsic clearance rate in vivo Clint In Vitro ([4]; rat liver microsomes) | Liver clearance rate Clint Hep In Vivo Extpl ([4]; rat liver microsomes) | Metabolic bioavailability MF % ([4]; rat liver microsomes) | half-life ([4]; rat, liver microsomes, pH 7.4, rat liver microsomes, read-out: Half life T-half) | Clearance rate in vivo Clint In Vivo Extpl ([5]; mouse liver microsomes) | Intrinsic clearance rate in vivo Clint In Vitro ([5]; mouse liver microsomes) | Liver clearance rate Clint Hep In Vivo Extpl ([5]; mouse liver microsomes) | Metabolic bioavailability MF % ([5]; mouse liver microsomes) | half-life ([5]; mouse, liver microsomes, pH 7.4, mouse liver microsomes, read-out: Half life T-half) | Compound
3 | 3 nM | 3.9 nM | 5.1 nM | 3 nM | 3.1 nM | – | – | – | – | – | – | – | – | – | – | – | – | – | – | – | CN1CCC(c2cnc(NCc3c(F)ccc4c3CCO4)n3cnnc23)=CC1=O [SL-E24]
4 | 3 nM | 5.6 nM | 1.9 nM | 0.7 nM | 7 nM | 1280 mL/min | 16.7 mL/min/gprot | 691 mL/min | 126 min | 54% | 64.7 mL/min | 144 mL/min/gprot | 15.3 mL/min | 23.6% | 14.6 min | 5.51 mL/min | 81.6 mL/min/gprot | 1.94 mL/min | 35.3% | 25.7 min | CC(=O)N1CC=C(c2cnc(NCc3c(F)ccc4c3CCO4)n3cnnc23)CC1 [E-Y15]
5 | 1 nM | 8.9 nM | 1.7 nM | 1 nM | 3.2 nM | – | – | – | – | – | – | – | – | – | – | – | – | – | – | – | CC(C)S(=O)(=O)N1CC=C(c2cnc(NCc3c(F)ccc4c3CCO4)n3cnnc23)CC1 [SL-ZYE-145]
